From patent US7927829B2, “Method for in vitro phosphorylation of trap of Staphylococcus aureus and a method for screening the inhibitor of the trap phosphorylation” (priority 2007, dated 2011)

Molecular target: TRAP protein (Staphylococcus aureus, UniProt Q6GFM2)
Assay type: biochemical
Design: 6xHis (C); made in house; host or cells: Escherichia coli
Details: for in vitro phosphorylation of TRAP protein by using metal ions: 20 μM or 200 μM metal ions, 37° C. 30 minutes, FIG. 2; for metal ion concentration above which TRAP protein is maximally phosphorylated: various ion concentrations, other conditions as Example 3, FIG. 3; for TRAP phosphorylation induced by oxidative and reductive agents: same procedure as Example 3, FIG. 5
Method: The TRAP protein obtained in Example 2 was prepared with each tube according to following compositions of Table 2.
The protein sample prepared above was reacted at 37° C. for 30 minutes, then mixed with 2× loading dye 10 l (BioRad), and analyzed by performing SDS-PAGE at 150 V for an hour. Afterward, the resulting gel was dried and exposed onto an X-ray film to measure a degree of phosphorylation. The result is illustrated in FIG. 2. In the upper part of FIG. 2, 20 μM metal ions, Mg, Zn, Cu, Fe, Mn, Ni, Co are used in Lane 1 through Lane 7, respectively. In the lower part of FIG. 2, 200 μM metal ions, Mg, Cu, Zn, Ni, Co, Ca are used in Lane 1 through Lane 7, respectively.
Generally, a protein kinase binds with ATP, hydrolyzes ATP into ADP and attaches a resulting phosphate onto a specific amino acid of the protein to phosphorylate. In this process, Mg^2+ ions play a role of a subsidiary enzyme to stabilize the kinase binding with phosphates of ATP. […] The present inventors have attempted to elucidate why the TRAP protein utilizes the transition metal ions. […] Various oxidative and reductive agents were used to induce a phosphorylation in this Example.
In order to measure the TRAP phosphorylation, a quantitative analysis was performed by using FeSO4, ZnCl2 and CuCl2, in this Example. FeSO4, ZnCl2 and CuCl2, were added to each reaction at various ion concentrations and other conditions of the phosphorylation are the same as that of Example 3. The result is illustrated in FIG. 3.

Sequence of TRAP protein (Q6GFM2 whole entry): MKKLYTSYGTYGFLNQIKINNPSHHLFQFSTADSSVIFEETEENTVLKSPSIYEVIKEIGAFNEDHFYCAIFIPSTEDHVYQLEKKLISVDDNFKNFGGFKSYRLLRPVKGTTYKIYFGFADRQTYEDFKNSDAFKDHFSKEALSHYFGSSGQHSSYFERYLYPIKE

[Cl][Cu][Cl] [CuCl2]
in vitro phosphorylation of TRAP protein by using metal ions: in vitro phosphorylated
metal ion concentration above which TRAP protein is maximally phosphorylated: > 20 µM

O=S(=O)([O-])[O-].[Fe+2] [FeSO4]
in vitro phosphorylation of TRAP protein by using metal ions: in vitro phosphorylated
metal ion concentration above which TRAP protein is maximally phosphorylated: > 2 µM

OO [H2O2, reference compound]
TRAP phosphorylation induced by oxidative and reductive agents: induced

[Cl-].[Cl-].[Mg+2] [Mg^2+, MgCl2]
in vitro phosphorylation of TRAP protein by using metal ions: not phosphorylated

[Cl-].[Cl-].[Zn+2] [ZnCl2]
in vitro phosphorylation of TRAP protein by using metal ions: in vitro phosphorylated
metal ion concentration above which TRAP protein is maximally phosphorylated: > 100 µM

O=C1O[C@H]([C@@H](O)CO)C(O)=C1O [ascorbic acid, reference compound]
TRAP phosphorylation induced by oxidative and reductive agents: not
TRAP phosphorylation inhibited by a reducing agent (summary statement): inhibited
